Assay results taken from US20240374585A1, “EPITHELIAL SODIUM CHANNEL (ENAC) INHIBITOR CONJUGATES AND METHODS FOR USE THEREOF” (Lung Therapeutics, Inc., priority 2021, published 2024).
Where a SMILES comes first, the peptide text is derived from it. Where no end group is shown, it is not given here. [ ]: non-standard residue; d: D form. Aib = CC(C)(N)C(=O)O

What was measured:
neutrophil elastase = biological target: T1, neutrophil elastase (Homo sapiens, UniProt P08246)
T1 sequence (P08246 30-267): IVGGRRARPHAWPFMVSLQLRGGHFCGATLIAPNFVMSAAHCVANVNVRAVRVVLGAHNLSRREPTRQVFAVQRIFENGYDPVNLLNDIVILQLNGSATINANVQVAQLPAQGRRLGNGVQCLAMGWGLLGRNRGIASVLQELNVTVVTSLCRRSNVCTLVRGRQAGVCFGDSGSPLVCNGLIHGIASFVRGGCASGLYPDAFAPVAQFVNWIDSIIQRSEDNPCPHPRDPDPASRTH
Method: Experiments were therefore performed to determine the stability of the conjugates to protease cleavage.
The conjugates of the invention were incubated in PBS or PBS and 0.1 mg neutrophil elastase for 60 minutes at 37° C. The conjugates were then run on HPLC to determine their stability against protease cleavage.

[1] = system: sheep model of cystic fibrosis; assay: Tracheal mucous velocity (TMV) in sheep model of cystic fibrosis; assay type: in vivo
Method: The conjugates of the present invention were tested for their ability to increase lung mucociliary clearance in a sheep model of cystic fibrosis.
The peptide conjugates of the present invention were tested in vivo using a sheep model of cystic fibrosis as described in Scott et al., Am J. Resp. Crit. Care Med., 2017; 196 (6): 734-744; and Sabater et al., PLOS ONE, 2019; 14 (11): e0224764, hereby incorporated by reference in their entirety.
Briefly, tracheal mucous velocity (TMV) was determined in sheep by insufflation of radio-opaque Teflon disks into the trachea and measuring the movement of the disks over a 1 minute period by scintigraphy.
Intubated sheep were treated with the CFTR inhibitor INH-172 by nebulization, which caused a reduction in the mucus transport rate in the trachea. Once a baseline inhibited TMV was obtained at 4 hours following CFTR inhibition, then ENaC inhibitor conjugate (Conj. 13) or control was nebulized into the sheep lung and TMV measurements were repeated hourly.

ENaC = biological target: T2, ENaC (Homo sapiens, UniProt P37088+P51168+P51170); assay: ENaC inhibition in NHBE cell monolayers, Ussing epithelial voltage clamp (short circuit current); assay type: cell-based
T2 construct: Primary NHBE cells were isolated from bronchi of normal healthy patients; endogenous in cells; host or cells: primary normal human bronchial epithelial (NHBE) cells, differentiated at air-liquid interface
T2 sequence (P37088 1-669): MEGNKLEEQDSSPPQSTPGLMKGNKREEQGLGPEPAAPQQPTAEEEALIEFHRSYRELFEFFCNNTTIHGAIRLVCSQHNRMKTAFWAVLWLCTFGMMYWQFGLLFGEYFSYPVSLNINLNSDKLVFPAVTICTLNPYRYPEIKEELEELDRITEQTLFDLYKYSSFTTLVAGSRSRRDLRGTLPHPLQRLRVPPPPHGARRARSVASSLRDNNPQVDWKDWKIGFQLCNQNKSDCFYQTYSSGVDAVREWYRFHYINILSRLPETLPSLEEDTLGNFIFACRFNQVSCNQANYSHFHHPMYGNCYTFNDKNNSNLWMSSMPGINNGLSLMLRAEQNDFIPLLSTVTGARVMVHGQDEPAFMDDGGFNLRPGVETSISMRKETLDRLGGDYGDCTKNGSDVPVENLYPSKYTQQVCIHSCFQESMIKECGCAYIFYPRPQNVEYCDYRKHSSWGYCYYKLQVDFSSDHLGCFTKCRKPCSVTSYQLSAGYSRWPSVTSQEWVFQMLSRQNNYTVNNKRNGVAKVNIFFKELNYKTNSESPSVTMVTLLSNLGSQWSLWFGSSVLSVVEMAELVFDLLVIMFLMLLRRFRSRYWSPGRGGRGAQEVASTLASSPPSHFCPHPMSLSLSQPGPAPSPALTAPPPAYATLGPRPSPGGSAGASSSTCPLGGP
T2 sequence (P51168 1-640): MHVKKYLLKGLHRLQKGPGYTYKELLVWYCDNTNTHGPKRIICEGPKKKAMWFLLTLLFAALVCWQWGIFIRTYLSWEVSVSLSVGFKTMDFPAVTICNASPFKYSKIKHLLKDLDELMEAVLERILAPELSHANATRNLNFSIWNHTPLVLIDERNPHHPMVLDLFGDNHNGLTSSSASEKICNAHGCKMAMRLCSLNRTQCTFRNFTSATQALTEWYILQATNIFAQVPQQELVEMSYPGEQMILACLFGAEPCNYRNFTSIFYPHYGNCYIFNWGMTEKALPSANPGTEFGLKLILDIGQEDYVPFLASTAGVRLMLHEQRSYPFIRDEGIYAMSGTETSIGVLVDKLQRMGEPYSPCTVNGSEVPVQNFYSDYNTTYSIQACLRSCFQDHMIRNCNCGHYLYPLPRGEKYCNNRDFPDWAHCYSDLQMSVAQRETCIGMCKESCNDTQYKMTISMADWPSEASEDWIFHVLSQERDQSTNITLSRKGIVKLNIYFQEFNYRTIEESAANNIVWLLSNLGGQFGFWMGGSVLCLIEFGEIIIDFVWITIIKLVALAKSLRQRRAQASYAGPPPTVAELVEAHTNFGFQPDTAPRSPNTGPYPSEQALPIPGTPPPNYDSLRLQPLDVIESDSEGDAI
T2 sequence (P51170 1-649): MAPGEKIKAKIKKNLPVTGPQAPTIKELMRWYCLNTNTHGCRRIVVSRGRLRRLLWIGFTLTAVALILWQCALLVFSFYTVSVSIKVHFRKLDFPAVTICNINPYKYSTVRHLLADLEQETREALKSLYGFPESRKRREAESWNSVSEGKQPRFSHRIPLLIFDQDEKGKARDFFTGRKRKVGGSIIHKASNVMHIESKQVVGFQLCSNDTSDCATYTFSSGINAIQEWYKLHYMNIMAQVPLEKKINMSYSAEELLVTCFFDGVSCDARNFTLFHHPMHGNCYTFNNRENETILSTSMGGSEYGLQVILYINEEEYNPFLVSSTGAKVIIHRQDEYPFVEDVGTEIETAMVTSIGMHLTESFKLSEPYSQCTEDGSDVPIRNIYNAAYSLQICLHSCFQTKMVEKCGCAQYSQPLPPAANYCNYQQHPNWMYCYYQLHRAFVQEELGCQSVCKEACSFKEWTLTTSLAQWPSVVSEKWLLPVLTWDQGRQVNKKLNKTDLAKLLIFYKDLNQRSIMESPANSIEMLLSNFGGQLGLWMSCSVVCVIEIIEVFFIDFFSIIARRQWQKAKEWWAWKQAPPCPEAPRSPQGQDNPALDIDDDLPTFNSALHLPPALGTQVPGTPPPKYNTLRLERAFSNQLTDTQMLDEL
Method: The objective of this study was to measure the ability of the illustrative conjugates to modulate ion transport function of ENAC in normal human bronchial epithelial (NHBE) cell monolayers. Sodium transport function of ENAC expressed in NHBE monolayers was evaluated using an Ussing epithelial voltage clamp apparatus. See, Hirsh et al., J. Pharmacol. Exp. Ther. 2008; 325:77-88, hereby incorporated by reference in its entirety.
Primary NHBE cells were isolated from bronchi of normal healthy patients, expanded in Lonza media (BEGM™ BulletKit™), and plated on Snapwell™ filters to form an epithelium. Cells on Snapwell™ inserts were grown for at least 21 days in Vertex Differentiation media and exposed to an air-liquid interface to promote differentiation. At least one day before the assay, mucous overlaying the apical surface was removed from the inserts by incubating the apical surface for about 30 minutes with ≥200 μL of differentiation media followed by aspiration of the mucous film and media.
The NHBE cell monolayers grown on Snapwell™ filter inserts were transferred to Physiologic Instruments Ussing recording chambers (Physiologic Instruments, Inc., San Diego, CA) and superfused with HB-PS. One or more 6-channel or 8-channel Physiologic Instruments VCC MC6 or VCC MC8 epithelial voltage clamps were used in combination to record short circuit current (ISC) from up to 24 inserts simultaneously. Air was used to operate the bubble lifts to rapidly circulate solutions in each Ussing chamber half and to aerate the monolayers.
Inserts were voltage clamped at 0 m V to record the ISC. Bumetanide (20 μM) was added to the basolateral side of all inserts. Test conjugates prepared as DMSO (Sigma-Aldrich) stocks were added cumulatively and sequentially to the apical Ussing chamber halves with at least 3 minutes between each addition.
Time and volume matched additions of DMSO to the basolateral side of the test conjugate treated inserts and both sides of the vehicle treated inserts was made to maintain osmotic balance across the epithelia. Transepithelial resistance was monitored with small voltage steps. The assay was performed at 35±2° C.
ENaC current at each test conjugate concentration was calculated as the peak current change produced by each test conjugate treated insert minus the mean current change produced by the corresponding DMSO additions to time-matched vehicle controls inserts. Cumulative difference data was fit to a Hill equation of the form: […]
Where IEnaC is the ISC peak difference current measured at each test conjugate concentration [Test].

Ac-(AmilCC1)-K-(Aib)-SHLRKLRKRLL-NH2 (K[Aib]SHLRKLRKRLL-NH2; not fully specified (N-terminus); printed as Ac-(AmilCC1)-K-(Aib)-SHLRKLRKRLL-NH2; also: amiloride click conjugate (AmilCC1) at residue 1) [Conjugate 13, amiloride-peptide conjugate, click chemistry, L-alanine replaced by Aib]
susceptibility to cleavage by neutrophil elastase (neutrophil elastase): drastically reduced susceptibility to cleavage by neutrophil elastase | fold better than SPX-101 at restoring TMV in vivo ([1]; 0.25 mg/kg vs SPX-101 2 mg/kg): approximately 8 fold | restoration of TMV ([1]; nebulized 0.125, 0.25 and 0.5 mg/kg after CFTR inhibitor INH-172, vs 0.9% saline, FIG. 5): dose-dependent restoration of TMV | dose needed to restore TMV ([1]; nebulized, sheep): 0.25 mg/kg | period over which restoration of TMV was sustained ([1]; nebulized, sheep, vs 0.9% saline): 8 h

CC(=O)N[C@@H](CCCCNC(N)=NC(=O)c1nc(Cl)c(N)nc1N)C(=O)NCCCCCC(=O)N[C@H](C(=O)N[C@@H](CO)C(=O)N[C@@H](CCCCN)C(=O)N[C@@H](CCCNC(=N)N)C(=O)N[C@@H](CCCNC(=N)N)C(N)=O)C(C)C [Conjugate 3, Ac-(AmilAC)K-(Ahx)-VSKRR-NH2] (HELM PEPTIDE1{[ac].[NC(=NC(=O)c1nc(Cl)c(N)nc1N)NCCCC[C@H](N[*:1])C(=O)[*:2]].[O=C(CCCCCN[*:1])[*:2]].V.S.K.R.R.[am]}$$$$V2.0)
IC50 (ENaC; NHBE cell monolayers, Ussing chamber, apical addition, 35±2° C., read-out: IC50 for the ENaC inhibition): 50 nM | fold more potent than amiloride (ENaC inhibition) (ENaC; relative to amiloride IC50): about 10 fold
